The record followed here is patent publication US9227923B2, “Pesticidal carboxamides” (Bayer Intellectual Property GmbH, priority 2009, dated 2016).

What all share (type): in vivo
The subject of series [1] is Tobacco Cutworm (Spodoptera litura) Larvae. Put plainly: Test against tobacco cutworm (Spodoptera litura) larvae, leaf dip. The following applies: active compound concentration of 100 ppm, third instar larvae, after 7 days; for pest or weed control at 100 ppm: Spodoptera litura, foliar, 168 h, read-out: insecticidal activity. A digest of the protocol:
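Sweet potato leaves were dipped in the test solution (DMF solvent, polyoxyethylene alkyl phenyl ether emulsifier), air-dried and offered to ten third-instar larvae per dish at 25 °C, with fresh leaves added on days 2 and 4. Mortality was counted at day 7 and expressed as % insecticidal activity (100% = all dead).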

The subject of series [2] is Cucurbit Leaf Beetle (Aulacophora Femoralis). Put plainly: Test against cucurbit leaf beetle (Aulacophora femoralis), leaf dip. The following applies: active compound concentration of 100 ppm, second instar larvae, after 7 days; for pest or weed control at 100 ppm: Aulacophora, foliar, 168 h, read-out: insecticidal activity. A digest of the protocol: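 Cucumber leaves dipped in compound solution (DMF solvent, polyoxyethylene alkyl phenyl ether emulsifier), air-dried, and placed with five second-instar larvae in cups on sterilized soil at 25° C. Dead larvae counted after 7 days; activity expressed as percent larvae killed.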

For series [3], the system named is Two-Spotted Spider Mite (Tetranychus Urticae). The series is described as follows: Test against two-spotted spider mite (Tetranychus urticae), spray. The settings on record: active compound concentration of 100 ppm; adult mites; after 7 days. The text has this:
Solvent: 3 parts by weight of dimethylformamide
Emulsifier: 1 part by weight of polyoxyethylene alkyl phenyl ether

A further series relates to Boophilus microplus. The series is described as follows: Boophilus microplus test (injection). The settings on record: for mortality at 0.02 mg: Rhipicephalus microplus, 168 h, read-out: activity (mortality in %; 100% means that all eggs are infertile); for activity (mortality in %; 100% means that all eggs are infertile): application rate of 20 μg/animal, injection, after 7 days. As to the method: Solvent: dimethyl sulfoxide
Five adult engorged female ticks (Boophilus microplus) are injected with […] compound solution into the abdomen. Ticks are transferred into replica plates and incubated in a climate chamber for a period of time. Egg deposition of fertile eggs is monitored.
After 7 days mortality in % is determined. 100% means that all eggs are infertile; 0% means that all eggs are fertile. […]

`CCC(=O)NCc1ccc(C(=O)Nc2c(C)cc(C(F)(C(F)(F)F)C(F)(F)F)cc2CC)cc1Br` [Compound 5-86]: the insecticidal activity in series [1] and in series [2] was 100% throughout. The same molecule showed an acaricidal activity in series [3] of 100%.
On to `CCc1cc(C(F)(C(F)(F)F)C(F)(F)F)cc(C)c1NC(=O)c1ccc(CNC(=O)CC(F)(F)F)c(Br)c1` [Compound 5-89], for which the insecticidal activity in series [1] and in series [2] was 100% each time. This molecule also registered an acaricidal activity in series [3] of 100%.
For `CCc1cc(C(F)(C(F)(F)F)C(F)(F)F)cc(C)c1NC(=O)c1ccc(CNC(=O)c2cccnc2F)c(Br)c1` [Compound 5-93], the insecticidal activity in series [1] and in series [2] was 100% each time. Further, the acaricidal activity in series [3] turned out to be 100%.
What is called mortality is the share of the test organisms that died. Turning to `CCc1cc(C(F)(C(F)(F)F)C(F)(F)F)cc(C)c1NC(=O)c1ccc(CNC(=O)CC(F)(F)F)c(C)c1` [Compound 5-102], the pest or weed control at 100 ppm in series [1] and in series [2] was 100% in each case. Besides, the mortality at 0.02 mg with Boophilus microplus amounted to 100%. Besides, in series [3], the acaricidal activity is 100%.
Turning to `CCc1cc(C(F)(C(F)(F)F)C(F)(F)F)cc(C)c1NC(=O)c1ccc(CNC(=O)c2cccnc2F)c(C)c1` [Compound 5-103], the insecticidal activity in series [1] and in series [2] was 100% each time. Also, the acaricidal activity in series [3] is reported as 100%.
On to `CCc1cc(C(F)(C(F)(F)F)C(F)(F)C(F)(F)F)cc(C)c1NC(=O)c1ccc(CNC(=O)CC(F)(F)F)c(F)c1` (stereo not shown) [Compound 5-148], for which the insecticidal activity in series [1] and in series [2] was 100% in each case. Moreover, the acaricidal activity in series [3] is listed as 100%.
On to `CCc1cc(C(F)(C(F)(F)F)C(F)(F)C(F)(F)F)cc(C)c1NC(=O)c1ccc(CNC(C)=O)c(Cl)c1` (stereo not shown) [Compound 5-150], for which the insecticidal activity in series [1] and in series [2] was 100% throughout. In series [3], the acaricidal activity came out at 100%.
As to `CCC(=O)NCc1ccc(C(=O)Nc2c(C)cc(C(F)(C(F)(F)F)C(F)(F)C(F)(F)F)cc2CC)cc1Cl` (stereo not shown) [Compound 5-151], the insecticidal activity in series [1] and in series [2] was 100% throughout. In series [3], this molecule had an acaricidal activity of 100%.
In the case of `CCc1cc(C(F)(C(F)(F)F)C(F)(F)C(F)(F)F)cc(C)c1NC(=O)c1ccc(CNC(=O)CC(F)(F)F)c(Cl)c1` (stereo not shown) [Compound 5-154], the insecticidal activity in series [1] and in series [2] was 100% in each case. The molecule further gave an acaricidal activity in series [3] of 100%.
Consider `CCc1cc(C(F)(C(F)(F)F)C(F)(F)C(F)(F)F)cc(C)c1NC(=O)c1ccc(CNC(=O)c2cccnc2F)c(Cl)c1` (stereo not shown) [Compound 5-155], for which the insecticidal activity in series [1] and in series [2] was 100% each time. The acaricidal activity in series [3] turned out to be 100%.
`CCc1cc(C(F)(C(F)(F)F)C(F)(F)C(F)(F)F)cc(C)c1NC(=O)c1ccc(CNC(C)=O)c(Br)c1` (stereo not shown) [Compound 5-157]: the insecticidal activity in series [1] and in series [2] was 100% in each case. The same molecule yielded an acaricidal activity in series [3] of 100%.
In the case of `CCc1cc(C(F)(C(F)(F)F)C(F)(F)C(F)(F)F)cc(C)c1NC(=O)c1ccc(CNC(=O)c2cccnc2Cl)c(Br)c1` (stereo not shown) [Compound 5-175], the insecticidal activity in series [1] and in series [2] was 100% in each case. The acaricidal activity in series [3] is reported as 100%.
On to `Cc1cc(C(F)(C(F)(F)F)C(F)(F)C(F)(F)F)cc(C)c1NC(=O)c1ccc(CNC(=O)CC(F)(F)F)c(F)c1F` (stereo not shown) [Compound 5-213], for which the insecticidal activity in series [1] and in series [2] was 100% throughout. Besides, in series [3], the acaricidal activity is on record as 100%.
As to `CCc1cc(C(F)(C(F)(F)F)C(F)(F)Br)cc(C)c1NC(=O)c1ccc(CNC(C)=O)c(Cl)c1` (stereo not shown) [Compound 5-219], the insecticidal activity in series [1] and in series [2] was 100% each time. The same molecule registered an acaricidal activity in series [3] of 100%.
As for `CCC(=O)NCc1ccc(C(=O)Nc2c(C)cc(C(F)(C(F)(F)F)C(F)(F)Br)cc2CC)cc1Cl` (stereo not shown) [Compound 5-220], the insecticidal activity in series [1] and in series [2] was 100% in each case. Besides, in series [3], the acaricidal activity worked out at 100%.
Take `CCc1cc(C(F)(C(F)(F)F)C(F)(F)Br)cc(C)c1NC(=O)c1ccc(CNC(=O)CC(F)(F)F)c(Cl)c1` (stereo not shown) [Compound 5-221]: the insecticidal activity in series [1] and in series [2] was 100% each time. In series [3], this molecule had an acaricidal activity of 100%.
Turning to `O=C(CC1CC1)NCc1ccc(C(=O)Nc2c(Cl)cc(C(F)(C(F)(F)F)C(F)(F)F)cc2Cl)cc1` [Compound 5-225], the insecticidal activity in series [1] and in series [2] was 100% in each case. For the same molecule, the acaricidal activity in series [3] was 100%.
For the molecule `CC(=O)NCc1ccc(C(=O)Nc2c(C)cc(C(F)(C(F)(F)F)C(F)(F)F)cc2OC(F)F)cc1Cl` [Compound 5-294], the insecticidal activity in series [1] and in series [2] was 100% in each case. Moreover, the acaricidal activity in series [3] worked out at 100%.
As to `CCC(=O)NCc1ccc(C(=O)Nc2c(C)cc(C(F)(C(F)(F)F)C(F)(F)F)cc2OC(F)F)cc1Cl` [Compound 5-295], the insecticidal activity in series [1] and in series [2] was 100% in each case. Moreover, the acaricidal activity in series [3] was found to be 100%.
Take `Cc1cc(C(F)(C(F)(F)F)C(F)(F)F)cc(OC(F)F)c1NC(=O)c1ccc(CNC(=O)CC(F)(F)F)c(Cl)c1` [Compound 5-296]: the insecticidal activity in series [1] and in series [2] was 100% each time. For the same molecule, in series [3], the acaricidal activity was found to be 100%.
Take `CCc1cc(C(F)(C(F)(F)F)C(F)(F)Br)cc(C)c1NC(=O)c1ccc(CNC(=O)CSC)c(Cl)c1` (stereo not shown) [Compound 5-320]: the insecticidal activity in series [1] and in series [2] was 100% throughout. Besides, in series [3], the acaricidal activity is 100%.
For `CSCC(=O)NCc1ccc(C(=O)Nc2c(Cl)cc(C(F)(C(F)(F)F)C(F)(F)C(F)(F)F)cc2Cl)cc1Cl` (stereo not shown) [Compound 5-331], the insecticidal activity in series [1] and in series [2] was 100% throughout. The molecule further gave an acaricidal activity in series [3] of 100%.
Consider `Cc1cc(C(F)(C(F)(F)F)C(F)(F)F)cc(OC(F)F)c1NC(=O)c1ccc(CNC(=O)C2CC2)c(Cl)c1` [Compound 5-341], for which the insecticidal activity in series [1] and in series [2] was 100% each time. In series [3], this molecule gave an acaricidal activity of 100%.
Turning to `CCc1cc(C(F)(C(F)(F)F)C(F)(F)F)cc(C)c1NC(=O)c1ccc(CNC(=O)CC2CC2)cn1` [Compound 7-5], the insecticidal activity in series [1] and in series [2] was 100% each time. For the same molecule, in the series on Boophilus microplus, the “activity (mortality in %; 100% means that all eggs are infertile)” value stood at 95%.
With `CCc1cc(C(F)(C(F)(F)F)C(F)(F)F)cc(C)c1NC(=O)c1ccc(C(C)NC(C)=O)cc1` (stereo not shown) [Compound 9-2, 4-(1-acetamidoethyl)-N-[2-ethyl-4-(1,1,1,2,3,3,3-heptafluoropropan-2-yl)-6-methylphenyl]benzamide], the pest or weed control at 100 ppm in series [1] and in series [2] was 100% each time. For the same molecule, the acaricidal activity in series [3] was found to be 100%.
On to `CCC(=O)NC(C)c1ccc(C(=O)Nc2c(C)cc(C(F)(C(F)(F)F)C(F)(F)F)cc2CC)cc1` (stereo not shown) [Compound 9-3], for which the insecticidal activity in series [1] and in series [2] was 100% throughout. This molecule also displayed an acaricidal activity in series [3] of 100%.
For the molecule `CCC(=O)NC1CCc2cc(C(=O)Nc3c(C)cc(C(F)(C(F)(F)F)C(F)(F)F)cc3CC)ccc21` (stereo not shown) [Compound 10-3], the insecticidal activity in series [1] and in series [2] was 100% each time. The acaricidal activity in series [3] was determined as 100%.
As to `CCc1cc(C(F)(C(F)(F)F)C(F)(F)F)cc(C)c1NC(=O)c1ccc2c(c1)CCC2NC(=O)CC(F)(F)F` (stereo not shown) [Compound 10-6], the insecticidal activity in series [1] and in series [2] was 100% in each case. The molecule further showed an acaricidal activity in series [3] of 100%.
In the case of `CCc1cc(C(F)(C(F)(F)F)C(F)(F)F)cc(C)c1NC(=O)c1ccc(-n2cncn2)c(CNC(=O)OC(C)(C)C)c1` [Compound 12-1, tert-butyl[5-{[2-ethyl-4-(1,1,1,2,3,3,3-heptafluoropropan-2-yl)-6-methylphenyl]carbamoyl}-2-(1H-1,2,4-triazol-1-yl)benzyl]carbamate], the pest or weed control at 100 ppm in series [1] was 100%. Further, in the series on Boophilus microplus, the mortality at 0.02 mg was 100%.
Consider `Cc1cc(C(F)(C(F)(F)F)C(F)(F)F)cc(OC(F)F)c1NC(=O)c1ccc(C#N)cc1Cl` [Compound I-12], for which the insecticidal activity in series [1] and in series [2] was 100% each time. This molecule showed an acaricidal activity in series [3] of 100%.
For `CCc1cc(C(F)(C(F)(F)F)C(F)(F)F)cc(C)c1NC(=O)c1ccc(C#N)nc1` [Compound J-1], the “activity (mortality in %; 100% means that all eggs are infertile)” value with Boophilus microplus is recorded as 95%.
